In patent EP3046573B1, “AMYLIN ANALOGUES” (Zealand Pharma A/S, priority 2013, dated 2015):
Where two headings read alike, the source gives them in different places. Numbered stars: 1 amine (or outer) side, 2 acyl side, 3 side chain; on linkers, the order of the positions; unused ones are H or OH. Bridge positions count the residues as written; N and C are the ends. Square brackets hold non-standard residues; d marks the D form. Peptide text beside a SMILES is read from it. * marks the point of attachment. C20 diacid = O=C(O)CCCCCCCCCCCCCCCCCCC(=O)*; γGlu = O=C(O)[C@H](CCC(=O)[*:2])N[*:1]; Hyp = O=C(O)[C@@H]1C[C@@H](O)CN1; NMeI = CC[C@H](C)[C@H](NC)C(=O)O; Sar = CNCC(=O)O

Experiments:
[1] = biological target: T1, human amylin receptor 3 (hAMYR3) consisting of hCTR2 co-expressed with human Receptor Activity Modifying Protein 3 (hRAMP3) (Homo sapiens, UniProt O60896+P30988); assay: hAMYR3 assay: induction of cAMP (AlphaScreen cAMP Assay kit) in COS7 cells expressing hAMYR3; format: cell-based
T1 construct: expressed in transfected cells
T1 sequence (P30988 25-474): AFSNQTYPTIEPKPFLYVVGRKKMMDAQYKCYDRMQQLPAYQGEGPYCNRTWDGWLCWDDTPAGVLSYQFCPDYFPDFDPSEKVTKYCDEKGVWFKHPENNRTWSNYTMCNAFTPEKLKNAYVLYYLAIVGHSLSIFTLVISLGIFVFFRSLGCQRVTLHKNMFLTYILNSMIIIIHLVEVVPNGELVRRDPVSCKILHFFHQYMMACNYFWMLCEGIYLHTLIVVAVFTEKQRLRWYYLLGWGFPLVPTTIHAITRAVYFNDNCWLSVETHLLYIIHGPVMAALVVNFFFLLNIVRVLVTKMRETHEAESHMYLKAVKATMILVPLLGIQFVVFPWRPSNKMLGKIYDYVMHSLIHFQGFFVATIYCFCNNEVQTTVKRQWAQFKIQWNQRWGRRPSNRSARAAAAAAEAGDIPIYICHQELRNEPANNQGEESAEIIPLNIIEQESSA
T1 sequence (O60896 24-148 partner): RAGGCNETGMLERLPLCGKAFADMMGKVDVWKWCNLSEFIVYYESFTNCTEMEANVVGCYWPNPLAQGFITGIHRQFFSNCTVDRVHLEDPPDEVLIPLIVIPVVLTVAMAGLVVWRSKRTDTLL
Excerpt: The cell line COS7, originating from African Green Monkey kidney fibroblast cells, was used for establishment of the stable cell lines described below. The COS7 cellular background was used due to it being RAMP naive, and as such it provides the best available system for testing of the monomeric hCTR and different heterodimeric amylin receptor subtypes functionally generated by introduction of the individual RAMPs.
A cell line expressing the human amylin receptor 3 (hAMYR3) was generated in the COS7 cellular background as stable clones. In brief, hCTR2 (GI:4502547) and hRAMP3 (GI:118572586) were amplified by PCR using primers encoding terminal restriction sites for subcloning. The 5'-end primers additionally encoded a near Kozak consensus sequence to ensure efficient translation. The fidelity of the DNA encoding the receptor was confirmed by DNA sequencing. The PCR products encoding the receptor were subcloned into a proprietary tri-cistronic mammalian expression vector with RAMP3, hCTR2 and neomycin (G418) resistance marker. The mammalian expression vector encoding the receptor was transfected into COS7 cells by a standard liposome transfection method. 48 hours post-transfection, cells were seeded for limited dilution cloning and selected with 1 mg/ml G418 in the culture medium. After 3 weeks, surviving colonies of hAMY3R-expressing cells were picked, propagated and tested in the amylin efficacy assay as described in Example 3 below. The functional generation of the amylin receptor phenotype was verified in the efficacy assay by a left-shifted efficacy response to amylin relative to monomeric calcitonin receptor, and one hAMYR3-expressing clone was chosen for compound profiling.
In vitro activity of test peptides at the hCTR2 and hAMYR3 receptors was assessed by measuring the induction of cAMP following stimulation of the receptor by pramlintide or peptides of the invention using the AlphaScreen® cAMP Assay kit from Perkin-Elmer.
Briefly, COS7 cells expressing hCTR2 (see Example 2, above) were seeded at 30-40,000 cells per well in 96-well microtiter plates coated with 0.01 % poly-L-lysine, and grown for 1 day in culture in 100 µl growth medium [DMEM, 10% FCS, Penicillin (100 IU/ml), Streptomycin (100 µg/ml)]. On the day of analysis, growth medium was removed and the cells were washed once with 200 µl Tyrode buffer [Tyrode's Salts (9.6 g/l), 10 mM HEPES, pH 7.4]. Cells were incubated in 100 µl Tyrode buffer containing increasing concentrations of test peptides, 100 µM IBMX and 0.1% casein for 15 min at 37° C. The reaction was stopped by carefully decanting off the compound/buffer medium and replacing it with lysis/detection buffer (80 µl 0.1 % w/v BSA, 5 mM HEPES, 0.3 % v/v Tween-20 in deionized water). After incubation at room temperature for 10 min., the cAMP content of the resulting cell lysate was estimated according to the AlphaScreen® cAMP Assay manufacturer's instructions. EC50 values and relative efficacy values (in %) compared to reference peptide (Pramlintide) were estimated by computer-aided curve fitting using the 4-parameter logistic (4PL) non-linear model.
The in vitro activity results (expressed as EC50 values) for peptides of the invention and for Pramlintide (reference peptide) are summarized in Table 2, below.

[2] = biological target: T2, human calcitonin receptor (hCTR2) (Homo sapiens, UniProt P30988); assay: hCTR2 assay: induction of cAMP (AlphaScreen cAMP Assay kit) in COS7 cells expressing hCTR2; format: cell-based; conditions: cAMP induction in COS7 cells expressing hCTR2; average of a minimum of 3 determinations; read-out: hCTR2 EC50
T2 construct: expressed in transfected cells
T2 sequence (P30988 25-474): T1 sequence (P30988 25-474)
Summary of the method: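 Stable hCTR2 clone in RAMP-naive COS7 cells; peptides titrated in Tyrode buffer (pH 7.4) with 100 µM IBMX, 0.1% casein, 15 min at 37° C. cAMP read by AlphaScreen after lysis; EC50 and efficacy relative to pramlintide from 4PL fit.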

[3] = cAMP induction in COS7 cells expressing hAMYR3, average of a minimum of 3 determinations, read-out: hAMY R3 EC50

EC50 [2] [nM]	EC50 [1, 3] [nM]	SMILES	EC50 [1] [nM]
0.14	0.29	CC[C@H](C)[C@@H](C(=O)N[C@@H](CC(C)C)C(=O)N[C@@H](CO)C(=O)N[C@@H](CO)C(=O)N[C@H](C(=O)N[C@@H](CCC(=O)O)C(=O)N[C@H](C(=O)NCC(=O)N[C@@H](CO)C(=O)N[C@@H](CCC(=O)O)C(=O)N[C@H](C(=O)N1CCC[C@H]1C(N)=O)[C@@H](C)O)C(C)C)[C@@H](C)O)N(C)C(=O)[C@H](C)NC(=O)CN(C)C(=O)[C@H](Cc1ccccc1)NC(=O)[C@H](CO)NC(=O)[C@H](CO)NC(=O)[C@H](CO)NC(=O)[C@H](CO)NC(=O)[C@H](CCCNC(=N)N)NC(=O)[C@H](Cc1c[nH]cn1)NC(=O)[C@H](CC(C)C)NC(=O)[C@H](Cc1ccccc1)NC(=O)[C@H](CCC(=O)O)NC(=O)[C@H](C)NC(=O)[C@H](CC(C)C)NC(=O)[C@H](CCCNC(=N)N)NC(=O)[C@@H]1CCCN1C(=O)[C@@H](NC(=O)[C@H](C)NC(=O)[C@@H]1CSSC[C@H](NC(=O)[C@H](CCCNC(=N)N)NC(=O)CC[C@H](NC(=O)CCCCCCCCCCCCCCCCCCC(=O)O)C(=O)O)C(=O)N[C@@H](CC(N)=O)C(=O)N[C@@H]([C@@H](C)O)C(=O)N[C@@H](C)C(=O)N[C@@H]([C@@H](C)O)C(=O)N1)[C@@H](C)O [Compound 142, [19CD]-isoGlu-RC()NTATC()ATPRLAEFLHRSSSSF-Gly(Me)-A-Ile(Me)-LSSTEVGSETP-NH2] ({C20 diacid-γGlu}-RCNTATCATPRLAEFLHRSSSSF[Sar]A[NMeI]LSSTEVGSETP-NH2; disulfide 2-7)	
0.1	0.27	CC[C@H](C)[C@@H](C(=O)N[C@@H](CC(C)C)C(=O)N[C@@H](CO)C(=O)N[C@@H](CO)C(=O)N[C@H](C(=O)N[C@@H](CCC(=O)O)C(=O)N[C@H](C(=O)NCC(=O)N[C@@H](CO)C(=O)N[C@@H](CCC(=O)O)C(=O)N[C@H](C(=O)N1C[C@H](O)C[C@H]1C(N)=O)[C@@H](C)O)C(C)C)[C@@H](C)O)N(C)C(=O)[C@H](C)NC(=O)CN(C)C(=O)[C@H](Cc1ccccc1)NC(=O)[C@H](CO)NC(=O)[C@H](CO)NC(=O)[C@H](CCCNC(=N)N)NC(=O)[C@H](Cc1c[nH]cn1)NC(=O)[C@H](CC(C)C)NC(=O)[C@H](Cc1ccccc1)NC(=O)[C@H](CCC(=O)O)NC(=O)[C@H](C)NC(=O)[C@H](CC(C)C)NC(=O)[C@H](CCCNC(=N)N)NC(=O)[C@H](CCC(=O)O)NC(=O)[C@@H](NC(=O)[C@H](C)NC(=O)[C@@H]1CSSC[C@H](NC(=O)[C@H](Cc2c[nH]c3ccccc23)NC(=O)CC[C@H](NC(=O)CCCCCCCCCCCCCCCCCCC(=O)O)C(=O)O)C(=O)NCC(=O)N[C@@H]([C@@H](C)O)C(=O)N[C@@H](C)C(=O)N[C@@H]([C@@H](C)O)C(=O)N1)[C@@H](C)O [Compound 164, [19CD]-isoGlu-WC()GTATC()ATERLAEFLHRSSF-Gly(Me)-A-Ile(Me)-LSSTEVGSET-Hyp-NH2] ({C20 diacid-γGlu}-WCGTATCATERLAEFLHRSSF[Sar]A[NMeI]LSSTEVGSET[Hyp]-NH2; disulfide 2-7)	
3.5	0.64	CC[C@H](C)[C@@H](C(=O)N[C@@H](CC(C)C)C(=O)N[C@@H](CO)C(=O)N[C@@H](CO)C(=O)N[C@H](C(=O)N[C@@H](CCC(=O)O)C(=O)N[C@H](C(=O)NCC(=O)N[C@@H](CO)C(=O)N[C@@H](CCC(=O)O)C(=O)N[C@H](C(=O)N1C[C@H](O)C[C@H]1C(N)=O)[C@@H](C)O)C(C)C)[C@@H](C)O)N(C)C(=O)CN(C)C(=O)[C@H](Cc1ccccc1)NC(=O)[C@H](CO)NC(=O)[C@H](CO)NC(=O)[C@H](CO)NC(=O)[C@H](CO)NC(=O)[C@H](CCCNC(=N)N)NC(=O)[C@H](Cc1c[nH]cn1)NC(=O)[C@H](CC(C)C)NC(=O)[C@H](Cc1ccccc1)NC(=O)[C@H](CCC(=O)O)NC(=O)[C@H](C)NC(=O)[C@H](CC(C)C)NC(=O)[C@H](CCCNC(=N)N)NC(=O)[C@H](CCC(=O)O)NC(=O)[C@@H](NC(=O)[C@H](C)NC(=O)[C@@H]1CSSC[C@H](NC(=O)[C@H](CCCCN)NC(=O)[C@H](CCCCN)NC(=O)CC[C@H](NC(=O)CCCCCCCCCCCCCCCCCCC(=O)O)C(=O)O)C(=O)N[C@@H](CCC(=O)O)C(=O)N[C@@H]([C@@H](C)O)C(=O)N[C@@H](C)C(=O)N[C@@H]([C@@H](C)O)C(=O)N1)[C@@H](C)O [Compound 169, [19CD]-isoGlu-KKC()ETATC()ATERLAEFLHRSSSSF-Gly(Me)-Ile(Me)-LSSTEVGSET-Hyp-NH2] ({C20 diacid-γGlu}-KKCETATCATERLAEFLHRSSSSF[Sar][NMeI]LSSTEVGSET[Hyp]-NH2; disulfide 3-8)	

SMILES	EC50 [2] [nM]	EC50 [1, 3] [nM]	EC50 [1] [nM]
CC[C@H](C)[C@@H](C(=O)N[C@@H](CC(C)C)C(=O)N[C@@H](CO)C(=O)N[C@@H](CO)C(=O)N[C@H](C(=O)N[C@@H](CCC(=O)O)C(=O)N[C@H](C(=O)NCC(=O)N[C@@H](CO)C(=O)N[C@@H](CCC(=O)O)C(=O)N[C@H](C(=O)N1CCC[C@H]1C(N)=O)[C@@H](C)O)C(C)C)[C@@H](C)O)N(C)C(=O)[C@H](C)NC(=O)CN(C)C(=O)[C@H](Cc1ccccc1)NC(=O)[C@H](CO)NC(=O)[C@H](CO)NC(=O)[C@H](CO)NC(=O)[C@H](CO)NC(=O)[C@H](CCCNC(=N)N)NC(=O)[C@H](Cc1c[nH]cn1)NC(=O)[C@H](CC(C)C)NC(=O)[C@H](Cc1ccccc1)NC(=O)[C@H](CCC(=O)O)NC(=O)[C@H](C)NC(=O)[C@H](CC(C)C)NC(=O)[C@H](CCCNC(=N)N)NC(=O)[C@H](CO)NC(=O)[C@@H](NC(=O)[C@H](C)NC(=O)[C@@H]1CSSC[C@H](NC(=O)[C@H](CCCNC(=N)N)NC(=O)CC[C@H](NC(=O)CCCCCCCCCCCCCCCCCCC(=O)O)C(=O)O)C(=O)N2CCC[C@H]2C(=O)N[C@@H]([C@@H](C)O)C(=O)N[C@@H](C)C(=O)N[C@@H]([C@@H](C)O)C(=O)N1)[C@@H](C)O [Compound 140, [19CD]-isoGlu-RC()PTATC()ATSRLAEFLHRSSSSF-Gly(Me)-A-Ile(Me)-LSSTEVGSETP-NH2] ({C20 diacid-γGlu}-RCPTATCATSRLAEFLHRSSSSF[Sar]A[NMeI]LSSTEVGSETP-NH2; disulfide 2-7)	0.098		0.18
